Patent US20040192869A1, “Polyvalent imprinted polymer and process of preparation thereof” (priority 2003, published 2004)

Biological target: lysozyme (Gallus gallus, UniProt P00698)
Test: Relative inhibition of lysozyme (I50), UV spectrophotometric method with Micrococcus lysodeikticus as substrate
Type: biochemical
Conditions: copolymers prepared in absence of lysozyme, and NAG
Protocol: This example describes estimation of inhibition concentration (I50) for lysozyme imprinted polyvalent copolymers and polyvalent copolymers prepared in the absence of lysozymne by UV spectrophotometric method. Micrococcus lysodeikticus is a substrate for the enzyme lysozyme. Relative binding of copolYmers was estimated by using a procedure reported by Neuberger and Wilson (1967). 1.5% w/v stock solutions of non imprinted copolymer was prepared in 0.0066 M phosphate buffer pH 6.2 containing 0.0154 M sodium chloride and 0.008 M sodium azide. One milliliter of stock solution containing different copolymer concentration was mixed with 1.6 ml of 78 μg/ml of Micrococcus lysodeikticus in a 3-ml capacity glass cuvette. The mixture was incubated for 5 minutes at 20° C. To this mixture 0.1 ml of lysozyme (27 μg/ml) was added and mixed thoroughly. The relative absorbance at 450 nm (Δ450) was recorded for 30 seconds. A blank reading without the copolymer was noted and the change in the absorbance per second was calculated. Then relative inhibition was calculated.

Sequence of lysozyme (P00698 19-147): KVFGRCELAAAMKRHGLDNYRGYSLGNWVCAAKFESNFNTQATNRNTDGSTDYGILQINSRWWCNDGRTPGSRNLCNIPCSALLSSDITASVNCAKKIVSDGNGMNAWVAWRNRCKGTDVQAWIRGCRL

I max (concentration at maximum inhibition): 92000 nM | I max: 55.29 | IC50 (read-out: Relative Inhibition Iso (I50)): 74 µM
Compound: CC(=O)N[C@H]1C(O)O[C@H](CO)[C@@H](O)[C@@H]1O (stereo partly drawn) [NAG, N-Acetyl Glucosamine]
